Here are results for nine compounds from US6800628B2, “N-substituted 4-((-4′-aminobenzoyl)-oxymethyl)-piperidines having gastric prokinetic properties” (Janssen Pharmaceutica N.V., priority 1996, dated 2004).

Chain of 5 HT4 receptor (Q13639 whole entry): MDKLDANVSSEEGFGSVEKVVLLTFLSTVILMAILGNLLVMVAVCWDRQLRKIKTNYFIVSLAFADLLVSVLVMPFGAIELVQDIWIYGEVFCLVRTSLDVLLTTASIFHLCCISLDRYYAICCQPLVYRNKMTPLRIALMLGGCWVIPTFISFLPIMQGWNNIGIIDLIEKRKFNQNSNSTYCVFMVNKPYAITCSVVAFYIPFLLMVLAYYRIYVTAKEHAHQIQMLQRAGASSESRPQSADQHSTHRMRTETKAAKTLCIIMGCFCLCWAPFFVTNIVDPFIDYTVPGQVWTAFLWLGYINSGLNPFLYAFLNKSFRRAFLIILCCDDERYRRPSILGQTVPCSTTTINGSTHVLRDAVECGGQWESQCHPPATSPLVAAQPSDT

The subject of one data set is conscious dogs. Description: Gastric emptying of an acaloric liquid test meal delayed by administration of lidamidine, in conscious dogs. Type of data set: in vivo, beagle dogs. To be noted: gastric emptying of a liquid meal delayed by lidamidine in conscious dog; dose of 0.04 mg/kg of the test compound. The source says:
“Gastric Emptying of an Acaloric Liquid Test Meal Delayed by […] of Lidamidine, in Conscious Dogs” Test
Female beagle dogs, weighing 7-14 kg, were trained to stand quietly in Pavlov frames. They were implanted with a gastric cannula under general anaesthesia and aseptic precautions. After a median laparatomy, an incision was made through the gastric wall in the longitudinal direction between the greater and the lesser curve, 2 cm above the nerves of Latarjet. The cannula was secured to the gastric wall by means of a double purse string suture and brought out via a stab wound at the left quadrant of the hypochondrium. Dogs were allowed a recovery period of at least two weeks. […]
In the 1 ml samples of the gastric contents, the glucose concentrations were measured on a Hitachi 717 automatic analyser by the hexokinase method (Schmidt, 1961).
Curves were fitted to the measurement points (glucose vs time) using weighed non-linear regression analysis. Gastric emptying was quantified as the time needed to empty 70% of the meal (t70%). The control emptying time was calculated as the mean t70% of the last 5 solvent experiments of the same dog. Acceleration of delayed gastric emptying (Δt) was calculated as the time difference between t70% compound and t70% solvent. To correct for variations in emptying rate between dogs, Δt was expressed as % of t70% solvent (Schuurkes et al, 1992).
`Cc1nccnc1NCCN1CCC(COC(=O)c2cc(Cl)c(N)c3c2OC(C)(C)C3)CC1` [Compound 6, [1-[2-[(3-methyl-2-pyrazinyl)amino]ethyl]-4-piperidinyl]methyl 4-amino-5-chloro-2,3-dihydro-2,2-dimethyl-7-benzofurancarboxylate]: the “Acceleration (Δt/t)” value is given as −0.41.

The next data set addresses 5 HT4 receptor (Homo sapiens, UniProt Q13639).
Assay: not given
To be noted: stated for prior art compounds; cited from earlier work.
Turning to `CCCCN1CCC(COC(=O)c2cc(Cl)c(N)c3c2OCCC3)CC1.Cl` [(1-butyl-4-piperidinyl)methyl-5-amino-6-chloro-3,4-dihydro-2-H-1-benzopyran-8-carboxylate hydrochloride], the “5 HT4 receptor activity (agonistic / antagonistic)” value is 5 HT4 receptor antagonistic activity. For `CCCCN1CCC(OC(=O)c2cc(Cl)c(N)c3c2OCCO3)CC1` [8-amino-7-chloro-1,4-benzodioxan-5-(1-butyl-4-piperidinyl)carboxylate], the “5 HT4 receptor activity (agonistic / antagonistic)” value is recorded as 5 HT4 receptor antagonistic activity. Regarding `CCCCN1CCC(COC(=O)c2cc(Cl)c(N)c3c2OCC3)CC1.Cl` [(1-butyl-4-piperidinyl)methyl-4-amino-5-chloro-2,3-dihydrobenzo[b]furan-7-carboxylate hydrochloride], the “5 HT4 receptor activity (agonistic / antagonistic)” value is reported as 5 HT4 receptor agonistic activity. With `CC(O)CCN1CCC(COC(=O)c2cc(Cl)c(N)c3c2OCCO3)CC1` (stereo not drawn) [[1-(3-hydroxybutyl)-4-piperidinyl]methyl-8-amino-7-chloro-1,4-benzodioxan-5-carboxylate], the “5 HT4 receptor activity (agonistic / antagonistic)” value is 5 HT4 receptor antagonistic activity. Turning to `CCCCN1CCC(COC(=O)c2cc(Cl)c(N)c3c2OCCO3)CC1` [(1-butyl-4-piperidinyl)methyl 8-amino-7-chloro-1,4-benzodioxan-5-carboxylate], the “5 HT4 receptor activity (agonistic / antagonistic)” value is on record as 5 HT4 receptor antagonistic activity.

As to `Nc1c(Cl)cc(C(=O)OCC2CCN(Cc3cccnc3)CC2)c2c1OCCO2` [5-(1-(3-pyridylmethyl)-4-piperidinyl)methyl-8-amino-7-chloro-1,4-benzo-dioxancarboxylate], the “5 HT4 receptor activity (agonistic / antagonistic)” value is recorded as 5 HT4 receptor antagonistic activity. As to `CCOC(=O)CCN1CCC(COC(=O)c2cc(Cl)c(N)c3c2OCCO3)CC1` [[1-(2-carbo-ethoxyethyl)-4-piperidinyl]methyl-8-amino-7-chloro-1,4-benzodioxan-5-carboxylate], the “5 HT4 receptor activity (agonistic / antagonistic)” value was 5 HT4 receptor antagonistic activity.

System in a further data set: not given
Assay: not given
Conditions: not given
In turn, `COc1cc(N)c(Cl)cc1C(=O)OCC1CCN(CCCOc2ccc(F)cc2)CC1` [Compound 1, [1-[3-(4-fluorophenoxy)propyl]-4-piperidinyl]methyl 4-amino-5-chloro-2-methoxybenzoate] had a melting point of 140 °C.

One may read the melting point as the temperature, or range, at which the solid turns liquid.
